From US8343983B2, “Substituted pyrazolo-pyrimidine compounds” (ArQule, Inc., priority 2009, dated 2013)
Like-named read-outs stand apart in the source and are kept apart here.

Tested on: cancer cells
Assay: MTS assay: inhibition of cell growth (formazan absorbance at 492 nm after 72 hours with test compound)
Type: cell-based
Conditions: inhibition class
Method in brief: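 DMEM with 1% FBS; cells seeded at 3000/well and grown 18 h at 37 °C, then exposed to compound for 72 h and to MTS/PMS for 4 h. IC50 is the concentration giving a 50% absorbance drop; grades are % inhibition bands.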

[1] = Homo sapiens, DLD-1 cells, read-out: DLD-1, MTS 72 hours at 10 uM
[2] = Homo sapiens, KATO III cells, read-out: KATO III, MTS 72 hours at 10 uM
[3] = Homo sapiens, MDA-MB-231 cells, read-out: MDA-MB-231, MTS 72 hours at 10 uM
[4] = Homo sapiens, NCI-H1299 cells, read-out: NCI-H1299, MTS 72 hours at 10 uM
[5] = Homo sapiens, PC-3 cells, read-out: PC-3, MTS 72 hours at 10 uM
[6] = PACA-2 cells, read-out: PACA-2, MTS 72 hours at 10 uM

| SMILES | inhibition at 10 µM [1] | inhibition at 10 µM [2] | inhibition at 10 µM [3] | inhibition at 10 µM [4] | inhibition at 10 µM [5] | inhibition at 10 µM [6] |
| --- | --- | --- | --- | --- | --- | --- |
| Brc1ccc(CCNc2nc3c4c(n[nH]c4n2)CCN3Cc2ccccc2)cc1 [Compound 97, 6-benzyl-N-[2-(4-bromophenyl)ethyl]-2,6,7,8-tetrahydro-1,2,3,5,6-pentaazaacenaphthylen-4-amine] | 50 to 79% | < 50% | < 50% | 50 to 79% | < 50% | < 50% |
| COc1ccc2c(CCNc3nc4c5c(n[nH]c5n3)CCN4Cc3ccccc3)c[nH]c2c1 [Compound 98, 6-benzyl-N-[2-(6-methoxy-1H-indol-3-yl)ethyl]-2,6,7,8-tetrahydro-1,2,3,5,6-pentaazaacenaphthylen-4-amine] | < 50% | 50 to 79% | 50 to 79% | 50 to 79% | > 79% | < 50% |
| COc1ccc(CN2CCc3n[nH]c4nc(SC)nc2c34)cc1 [Compound 99, 6-(4-methoxybenzyl)-4-(methylsulfanyl)-2,6,7,8-tetrahydro-1,2,3,5,6-pentaazaacenaphthylene] | < 50% | < 50% | < 50% | < 50% | < 50% | < 50% |
| COc1ccc(CN2CCc3n[nH]c4nc(NCc5ccccc5)nc2c34)cc1 [Compound 100, N-benzyl-6-(4-methoxybenzyl)-2,6,7,8-tetrahydro-1,2,3,5,6-pentaazaacenaphthylen-4-amine] | < 50% | < 50% | < 50% | < 50% | < 50% | < 50% |
| c1ccc(CNc2nc3c4c(n[nH]c4n2)CCN3)cc1 [Compound 101, N-benzyl-2,6,7,8-tetrahydro-1,2,3,5,6-pentaazaacenaphthylen-4-amine] | 50 to 79% | < 50% | < 50% | < 50% | 50 to 79% | > 79% |
| COc1ccc(CN2CCc3n[nH]c4nc(NCc5cccnc5)nc2c34)cc1 [Compound 102, 6-(4-methoxybenzyl)-N-(pyridin-3-ylmethyl)-2,6,7,8-tetrahydro-1,2,3,5,6-pentaazaacenaphthylen-4-amine] | > 79% | > 79% | > 79% | > 79% | > 79% | > 79% |
| COc1ccc(CN2CCc3n[nH]c4nc(N5CCN(c6ccncc6)CC5)nc2c34)cc1 [Compound 103, 6-(4-methoxybenzyl)-4-(4-pyridin-4-ylpiperazin-1-yl)-2,6,7,8-tetrahydro-1,2,3,5,6-pentaazaacenaphthylene] | > 79% | > 79% | > 79% | 50 to 79% | > 79% | > 79% |
| COc1ccc(CN2CCc3n[nH]c4nc(NCCc5c[nH]c6ccccc56)nc2c34)cc1 [Compound 104, N-[2-(1H-indol-3-yl)ethyl]-6-(4-methoxybenzyl)-2,6,7,8-tetrahydro-1,2,3,5,6-pentaazaacenaphthylen-4-amine] | 50 to 79% | 50 to 79% | < 50% | 50 to 79% | < 50% | < 50% |
| COc1ccc(CN2CCc3n[nH]c4nc(NCCN5CCOCC5)nc2c34)cc1 [Compound 105, 6-(4-methoxybenzyl)-N-(2-morpholin-4-ylethyl)-2,6,7,8-tetrahydro-1,2,3,5,6-pentaazaacenaphthylen-4-amine] | > 79% | > 79% | > 79% | > 79% | > 79% | > 79% |
| COc1ccc(CN2CCc3n[nH]c4nc(NC5Cc6ccccc6C5)nc2c34)cc1 [Compound 106, N-(2,3-dihydro-1H-inden-2-yl)-6-(4-methoxybenzyl)-2,6,7,8-tetrahydro-1,2,3,5,6-pentaazaacenaphthylen-4-amine] | > 79% | > 79% | < 50% | 50 to 79% | < 50% | 50 to 79% |
| COc1ccc(CN2CCc3n[nH]c4nc(NC5CCCCC5)nc2c34)cc1 [Compound 107, N-cyclohexyl-6-(4-methoxybenzyl)-2,6,7,8-tetrahydro-1,2,3,5,6-pentaazaacenaphthylen-4-amine] | < 50% | < 50% | < 50% | < 50% | < 50% | < 50% |
| COc1ccc(CN2CCc3n[nH]c4nc(NCCOc5ccccc5)nc2c34)cc1 [Compound 108, 6-(4-methoxybenzyl)-N-(2-phenoxyethyl)-2,6,7,8-tetrahydro-1,2,3,5,6-pentaazaacenaphthylen-4-amine] | 50 to 79% | < 50% | < 50% | < 50% | < 50% | > 79% |
| COc1ccc(CN2CCc3n[nH]c4nc(NCCc5ccc(F)cc5)nc2c34)cc1 [Compound 109, N-[2-(4-fluorophenyl)ethyl]-6-(4-methoxybenzyl)-2,6,7,8-tetrahydro-1,2,3,5,6-pentaazaacenaphthylen-4-amine] | 50 to 79% | 50 to 79% | < 50% | 50 to 79% | < 50% | 50 to 79% |
| COc1ccc(CN2CCc3n[nH]c4nc(N5CCOCC5)nc2c34)cc1 [Compound 110, 6-(4-methoxybenzyl)-4-morpholin-4-yl-2,6,7,8-tetrahydro-1,2,3,5,6-pentaazaacenaphthylene] | < 50% | < 50% | < 50% | < 50% | < 50% | < 50% |
| COc1ccc(CN2CCc3n[nH]c4nc(NC5CCN(C)CC5)nc2c34)cc1 [Compound 111, 6-(4-methoxybenzyl)-N-(1-methylpiperidin-4-yl)-2,6,7,8-tetrahydro-1,2,3,5,6-pentaazaacenaphthylen-4-amine] | < 50% | < 50% | < 50% | < 50% | < 50% | < 50% |
| COc1ccc(CN2CCc3n[nH]c4nc(NCc5ccccc5Cl)nc2c34)cc1 [Compound 112, N-(2-chlorobenzyl)-6-(4-methoxybenzyl)-2,6,7,8-tetrahydro-1,2,3,5,6-pentaazaacenaphthylen-4-amine] | > 79% | > 79% | > 79% | < 50% | > 79% | > 79% |
| COc1ccc(CN2CCc3n[nH]c4nc(NCc5cccc(F)c5)nc2c34)cc1 [Compound 113, N-(3-fluorobenzyl)-6-(4-methoxybenzyl)-2,6,7,8-tetrahydro-1,2,3,5,6-pentaazaacenaphthylen-4-amine] | > 79% | < 50% | 50 to 79% | < 50% | > 79% | > 79% |
| COc1ccc(CN2CCc3n[nH]c4nc(N5CCN(Cc6ccccc6)CC5)nc2c34)cc1 [Compound 114, 4-(4-benzylpiperazin-1-yl)-6-(4-methoxybenzyl)-2,6,7,8-tetrahydro-1,2,3,5,6-pentaazaacenaphthylene] | < 50% | < 50% | < 50% | < 50% | < 50% | < 50% |
| COc1ccc(CN2CCc3n[nH]c4nc(NCCc5c[nH]c6ccc(Cl)cc56)nc2c34)cc1 [Compound 115, N-[2-(5-chloro-1H-indol-3-yl)ethyl]-6-(4-methoxybenzyl)-2,6,7,8-tetrahydro-1,2,3,5,6-pentaazaacenaphthylen-4-amine] | > 79% | > 79% | > 79% | > 79% | > 79% | > 79% |
| COc1ccc(CN2CCc3n[nH]c4nc(NCCc5ccccc5)nc2c34)cc1 [Compound 116, 6-(4-methoxybenzyl)-N-(2-phenylethyl)-2,6,7,8-tetrahydro-1,2,3,5,6-pentaazaacenaphthylen-4-amine] | > 79% | > 79% | > 79% | > 79% | > 79% | > 79% |
| COc1ccc(CN2CCc3n[nH]c4nc(NCc5ccc(Cl)cc5)nc2c34)cc1 [Compound 117, N-(4-chlorobenzyl)-6-(4-methoxybenzyl)-2,6,7,8-tetrahydro-1,2,3,5,6-pentaazaacenaphthylen-4-amine] | 50 to 79% | < 50% | 50 to 79% | 50 to 79% | < 50% | < 50% |
| COc1ccc(CN2CCc3n[nH]c4nc(Nc5ccccc5)nc2c34)cc1 [Compound 118, 6-(4-methoxybenzyl)-N-phenyl-2,6,7,8-tetrahydro-1,2,3,5,6-pentaazaacenaphthylen-4-amine] | < 50% | < 50% | < 50% | < 50% | < 50% | < 50% |
